Test results from publication PMC10305148, “In Vitro Characterization and Antiviral Susceptibility of Ophidian Serpentoviruses” (Microorganisms, 2023).
≈ marks a conversion by molar mass, not a printed value. Where two headings read alike, the source gives them in different places.

How the values were obtained:
[1] = tested on: BPNV; experiment: CPE reduction assay in DPHt cells; type: cell-based, Ball python nidovirus; settings: average ± SD; for EC50: Ball python nidovirus, read-out: EC50 (50% effective concentration, CPE reduction assay)
From the text: (§1) Ribavirin was obtained from ICN Pharmaceuticals, Inc. (now Bausch Health, Laval, QC, Canada). Favipiravir was purchased from AdooQ Bioscience (Irvine, CA, USA). NITD-008 was supplied by BEI Resources (Manassas, VA, USA). Enviroximine was purchased from Cayman Chemical (Ann Arbor, MI, USA), and pirodavir was purchased from Med Chem Express (Monmouth Junction, NJ, USA). Infergen (Interferon-alfacon-1), a human consensus interferon, was provided by InterMune, Inc (Brisbane, CA, USA) as an aqueous solution. Solid compounds were dissolved in DMSO at a 20× concentration to yield a final DMSO concentration of <10%. Further dilutions were performed in culture media.
(§2) Diamond python heart cells (DPHt) were grown as described above. Cells were plated in 96-well microtiter plates and grown overnight prior to the addition of the virus and test compounds. A CPE assay was conducted to determine the activity of various antiviral against BPNV, GTSV, and AnPSN. Serial half-log dilutions of the test compounds were made and added to 5 wells of the 96-well plate. Culture media was added to two wells to determine the 50% cytotoxic concentration (CC50), and the virus was added to the other three wells to determine the 50% effective concentrations (EC50). Virus and cell controls were included with each plate. The selective index was determined by dividing the CC50 by the EC50/90 to determine the SI50/90. Two to three replicates of the assays were used to evaluate each compound.

[2] = Cytotoxicity in uninfected wells of the CPE assay; type: cell-based, Diamond python (Morelia spilota spilota); settings: Diamond python (Morelia spilota spilota), CC50 (50% cytotoxic concentration)
Experimental: as §2, with “compound. A confirmatory virus yield reduction (VYR) assay was conducted where supernatant from the CPE assay was collected and titered on DPHt cells to determine the 90% effective concentration (EC90), or the concentration of compound required to reduce the virus titer by one Log10.” for “compound.”

[3] = tested on: Diamond python heart cells (DPHt); experiment: Cytotoxicity in uninfected wells of the CPE assay; type: cell-based, Diamond python (Morelia spilota spilota)
Experimental: as §2, with “compound. A confirmatory virus yield reduction (VYR) assay was conducted where supernatant from the CPE assay was collected and titered on DPHt cells to determine the 90% effective concentration (EC90), or the concentration of compound required to reduce the virus titer by one Log10.” for “compound.”

[4] = tested on: GTSV; experiment: CPE reduction assay in DPHt cells; type: cell-based, Green tree python serpentovirus; settings: average ± SD; for EC50: read-out: EC50 (50% effective concentration, CPE reduction assay)
From the text: as §1, §2

[5] = tested on: GTSV; experiment: Virus yield reduction (VYR) assay, supernatant titered on DPHt cells; type: cell-based, Green tree python serpentovirus; settings: for EC90: read-out: EC90 (90% effective concentration, virus yield reduction assay)
[6] = set-up: method as in PMID 17168855; settings: long-term treatment; cited from earlier work
[7] = tested on: AnPSV; experiment: Virus yield reduction (VYR) assay, supernatant titered on DPHt cells; type: cell-based, Antaresian python serpentovirus; settings: for EC90: read-out: EC90 (90% effective concentration, virus yield reduction assay)
[8] = tested on: BPNV; experiment: as above; type: cell-based, Ball python nidovirus; settings: for EC90: Ball python nidovirus, read-out: EC90 (90% effective concentration, virus yield reduction assay)
[9] = tested on: AnPNV, BPNV, and GTSV; experiment: CPE reduction assay, summary for all three serpentoviruses; type: cell-based, Ophidian serpentoviruses
From the text: as §1
as §2, with “compound. A confirmatory virus yield reduction (VYR) assay was conducted where supernatant from the CPE assay was collected and titered on DPHt cells to determine the 90% effective concentration (EC90), or the concentration of compound required to reduce the virus titer by one Log10.” for “compound.”

[10] = tested on: AnPSV; experiment: CPE reduction assay in DPHt cells; type: cell-based, Antaresian python serpentovirus; settings: average ± SD; for EC50: read-out: EC50 (50% effective concentration, CPE reduction assay)
From the text: as §1, §2

[11] = tested on: Dengue virus; set-up: method as in PMID 19918064; settings: animal models; cited from earlier work
[12] = set-up: method as in PMID 19918064; settings: rats; development ceased; cited from earlier work
[13] = set-up: method as in PMID 19918064; settings: dogs; development ceased; cited from earlier work
[14] = tested on: pathogenic herpesvirus isolated from tortoises; set-up: method as in PMID 9323927; settings: doses of 25 or 50 µg/mL, turtle heart cell cultures; cited from earlier work
[15] = Diamond python (Morelia spilota spilota)

Molecule | EC50 [1] [µg/mL] | CC50 [2] [µg/mL] | CC50 (50% cytotoxic concentration) [3, 15] [µg/mL] | EC50 [4] [µg/mL] | antiviral activity (in words) [9] | EC50 [10] [µg/mL] | EC50 (50% effective concentration, CPE reduction assay) [1] [µg/mL] | EC50 (50% effective concentration, CPE reduction assay) [4] [µg/mL] | EC50 (50% effective concentration, CPE reduction assay) [10] [µg/mL] | further results
NC(=O)c1ncn([C@@H]2O[C@H](CO)[C@@H](O)[C@H]2O)n1 [Ribavirin] | 0.9 ± 0.2 (≈ 3.69 µM) | > 1000 | >1000 | 7.9 ± 3 (≈ 32.3 µM) | potent antiviral activity | 2 ± 0.3 (≈ 8.19 µM) | – | – | – | EC90 ([5]; GTSV, concentration reducing virus titer by one Log10): 14 µg/mL (≈ 57.3 µM); adverse effect (in words) [6]: associated with anemia; EC90 ([7]; AnPSV, concentration reducing virus titer by one Log10): 12 µg/mL (≈ 49.1 µM); EC90 ([8]; BPNV, concentration reducing virus titer by one Log10): 1.6 µg/mL (≈ 6.55 µM)
CCOC(=O)c1ccc(OCCC2CCN(c3ccc(C)nn3)CC2)cc1 [Pirodavir, pirodavir] | 2.6 (≈ 7.04 µM) | 7.3 (≈ 19.8 µM) | >10 | 0.86 (≈ 2.33 µM) | – | 1.1 (≈ 2.98 µM) | – | – | – | –
CCC(CC)COC(=O)[C@H](C)N[P@](=O)(OC[C@H]1O[C@@](C#N)(c2ccc3c(N)ncnn23)[C@H](O)[C@@H]1O)Oc1ccccc1 [Remdesivir] | < 0.022 | 2.2 ± 1.6 (≈ 3.65 µM) | 2.3 ± 1.8 (≈ 3.82 µM) | < 0.022 | potent antiviral activity | < 0.022 | – | – | – | EC90 [5]: < 0.001 µg/mL; EC90 [7]: < 0.001 µg/mL; EC90 [8]: < 0.001 µg/mL
CC(C)S(=O)(=O)n1c(N)nc2ccc(/C(=N/O)c3ccccc3)cc21 [Enviroximine] | – | – | – | – | – | – | >0.38 | >4.9 | >0.24 | –
NC(=O)c1nc(F)c[nH]c1=O [Favipiravir] | > 320 | > 320 | >320 | > 320 | – | > 320 | – | – | – | –
C#C[C@@]1(O)[C@H](O)[C@@H](CO)O[C@H]1n1ccc2c(N)ncnc21 [NITD-008] | – | – | – | – | potent antiviral activity | – | 0.7 ± 0.4 (≈ 2.41 µM) | 1.4 ± 0.8 (≈ 4.82 µM) | 0.6 ± 0.3 (≈ 2.07 µM) | CC50 (50% cytotoxic concentration) ([3]; DPHt cells, table line of AnPSV): 33 ± 9.0 µg/mL (≈ 114 µM); CC50 (50% cytotoxic concentration) ([3]; DPHt cells, table line of BPNV): 37 ± 26 µg/mL (≈ 127 µM); CC50 (50% cytotoxic concentration) ([3]; DPHt cells, table line of GTSV): 55 ± 42 µg/mL (≈ 189 µM); efficacy (in words) [11]: showed promise; toxicity (in words) [12]: toxicity was observed; EC90 (90% effective concentration, virus yield reduction assay) [5]: 4.8 µg/mL (≈ 16.5 µM); EC90 (90% effective concentration, virus yield reduction assay) [7]: 0.76 µg/mL (≈ 2.62 µM); toxicity (in words) [13]: toxicity was observed; EC90 (90% effective concentration, virus yield reduction assay) [8]: 1.5 µg/mL (≈ 5.17 µM)
Nc1nc2c(ncn2COCCO)c(=O)[nH]1 [Acyclovir] | – | – | – | – | – | – | – | – | – | activity (in words) [14]: active
Nc1nc(O)c2ncn(COC(CO)CO)c2n1 [ganciclovir] | – | – | – | – | – | – | – | – | – | activity (in words) [14]: active
Interferon-alfacon-1 [Infergen] | – | – | – | – | – | – | >0.01 | >0.01 | >0.01 | CC50 (50% cytotoxic concentration) [3]: 0.01 µg/mL
